# Source: patent publication US6080542A, “Plant peptide transport gene” (priority 1997, dated 2000)
# Key:
# PB1X-9B = assay: Growth on peptides as amino acid source, peptide transport mutant; assay type: cell-based, Saccharomyces cerevisiae; settings: PBIX-9B; 80 μM peptide in SC medium, 30° C., 72 hrs
# Description: (§1) In addition, untransformed PB1X-9B, PB1X-9B transformed with plasmid pJP9 encoding the above-described yeast peptide transport gene, PB1X-2AΔ and PB1X-2A, the ptr2^+ parental strain to PB1X-2AΔ strain, were also assayed. Each strain was grown overnight in SC media plus uracil (non-transformed) or minus uracil (transformed) plus amino acids to stationary phase and harvested by centrifugation. Cells were then washed twice with sterile dH2 O and resuspended at 5×10^6 cells/ml. 5 μl of each suspension was applied as a small spot to a 2 ml volume of solid media in a 24 well plate. All peptides were suspended in sterile, deionized water and added to an equal volume of SC medium plus the appropriate amino acids and uracil when required. The medium for each assay thus consisted of SC medium plus or minus uracil supplemented with 80 μM of a specific peptide and auxotrophic requirements minus the amino acid components of the added peptide. The plates were incubated at 30° C. for 72 hrs. and then scored for growth.
# PB1X-9B (pJP9) = assay: Growth on peptides, mutant transformed with yeast peptide transport gene; assay type: cell-based, Saccharomyces cerevisiae
# Description: as §1
# PB1X-9B (pPTF4) = assay: Growth on peptides, mutant transformed with plant gene ATPTR2A; assay type: cell-based, Saccharomyces cerevisiae
# Description: as §1
# PB1X-2A = assay: Growth on peptides, parental strain; assay type: cell-based, Saccharomyces cerevisiae; settings: data not shown
# Description: as §1, with “Thus, the peptide transport mutant PB1X-9B and deletion strain PB1X-2AΔ transformed with plasmids pPTF4 (ATPTR2A) or pDTF1 (ATPTR2B) were grown on various peptides to assess the specificity of the plant peptide transporter. In” for “In”
# ATPTR2Ap = assay: Uptake of L-leucyl-L-[3H]leucine and competition, PB1X-9B[pPTF4]; settings: PB1X-9B[pPTF4]; pH 5.5; dileucine and leucine at 100-fold
# ATPTR2Ap, sequence (as listed by the source): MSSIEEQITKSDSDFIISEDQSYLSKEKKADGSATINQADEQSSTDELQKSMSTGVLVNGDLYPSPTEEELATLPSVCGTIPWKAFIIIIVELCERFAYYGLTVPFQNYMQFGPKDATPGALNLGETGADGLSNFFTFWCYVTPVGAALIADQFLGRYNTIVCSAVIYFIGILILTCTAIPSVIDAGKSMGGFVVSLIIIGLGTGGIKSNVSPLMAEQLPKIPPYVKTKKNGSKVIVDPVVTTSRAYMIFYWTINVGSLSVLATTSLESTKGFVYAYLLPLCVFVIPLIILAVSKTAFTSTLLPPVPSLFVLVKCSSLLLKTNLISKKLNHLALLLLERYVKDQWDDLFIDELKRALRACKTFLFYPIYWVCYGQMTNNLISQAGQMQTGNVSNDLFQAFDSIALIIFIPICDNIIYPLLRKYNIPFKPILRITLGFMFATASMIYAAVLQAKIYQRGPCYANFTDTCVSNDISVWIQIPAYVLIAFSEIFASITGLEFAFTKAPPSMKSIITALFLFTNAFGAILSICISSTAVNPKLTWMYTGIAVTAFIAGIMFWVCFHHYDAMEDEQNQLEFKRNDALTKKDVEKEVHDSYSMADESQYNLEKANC
# Description: The kinetics of ATPTR2A-mediated transport of peptides in yeast was evaluated by transforming pPTF4 into the S. cerevisiae peptide transport mutant, PB1X-9B and measuring the uptake of tritiated Leu-Leu dipeptide.
# (§2) L-leucyl-L [^3 H]leucine trifluoroacetic acid (TFA) was synthesized by standard solution phase techniques (Naider, F. et al., J. Biol. Chem. 249:9-20 (1974)). Uptake of L-leucyl-L-[H]leucine was performed as by Island, M. D. et al (J. Bacteriol. 169:2132-2136 (1987)), with the following modifications. Cells were grown to late log phase (26×10^7 cells/ml) overnight in SC with 2% glucose, 1 mg/ml allantoin plus amino acids to supplement auxotrophic markers. To induce peptide transport. 5-15 ml from this culture was added to 100 ml fresh medium such that the density was 3.0×10^6 cells/ml. This culture was allowed to grow (approx. 2 hrs.) to a density of 6.0×10^6 cells/ml and then harvested by centrifugation. The pelleted cells were washed twice with 10 ml cold dH2 O and suspended in cold 2% glucose to a final concentration of 2×10^8 cells/ml and incubated at 30° C. for 15 min. 500 μl of cells were then added to an equal volume of reaction mixture (30° C.) and incubated at 30°-C. At 20, 40, 60, 90, and 120 sec. intervals, 190 μl portions were removed, filtered over filters (pore size, 0.45 μm; GN-6; Gelman Sciences, Inc., Ann Arbor, Mich.) and washed 2 times with 5 ml cold, sterile dH2 O and once with 5 ml dH2 O at room temperatures. Filters were placed in scintillation vials with 5 ml of Budget-Solve scintillation cocktail (Research Products International Corp., Mount Prospect, Ill.) and counted (liquid scintillation counter; LS-7000; Beckman Instruments, Inc., Fullerton, Calif.). The final concentration of the components in the uptake assay was 1% glucose, 40 mM sodium citrate-potassium phosphate buffer (pH 5.5), and 1.5×105 M L-leucyl-L-[^3 H]leucine (specific activity, 10 mCi/mmole). Uptake is expressed as nanomoles per mg dry weight.
# [1] = biological target: T1, yeast peptide transport system (Saccharomyces cerevisiae, UniProt P32901); assay: Competition for L-leucyl-L-[3H]leucine uptake, PB1X-9B[pJP9]; assay type: cell-based; settings: pH 5.5
# T1 construct: The ptr2 gene encodes a 602 amino acid hydrophobic polypeptide with 12 putative hydrophobic segments; expressed in transfected cells; host or cells: S. cerevisiae peptide transport mutant PB1X-9B (ptr2-2) transformed with pJP9
# T1 sequence (P32901 1-601): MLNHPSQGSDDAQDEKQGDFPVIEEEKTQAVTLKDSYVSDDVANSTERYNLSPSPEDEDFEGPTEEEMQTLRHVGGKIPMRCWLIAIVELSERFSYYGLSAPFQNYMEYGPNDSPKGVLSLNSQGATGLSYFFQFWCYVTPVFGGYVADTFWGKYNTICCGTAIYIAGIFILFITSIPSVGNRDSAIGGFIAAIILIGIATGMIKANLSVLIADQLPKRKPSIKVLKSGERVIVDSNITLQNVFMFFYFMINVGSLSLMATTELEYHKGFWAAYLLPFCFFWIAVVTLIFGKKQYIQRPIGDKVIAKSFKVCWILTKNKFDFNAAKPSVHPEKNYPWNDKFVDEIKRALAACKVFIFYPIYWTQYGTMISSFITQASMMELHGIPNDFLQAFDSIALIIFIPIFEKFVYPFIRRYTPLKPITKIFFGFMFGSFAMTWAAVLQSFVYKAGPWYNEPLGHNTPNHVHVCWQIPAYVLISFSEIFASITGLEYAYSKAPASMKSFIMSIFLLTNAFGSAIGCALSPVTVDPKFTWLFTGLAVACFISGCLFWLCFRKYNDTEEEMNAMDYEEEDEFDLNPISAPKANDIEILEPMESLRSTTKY
# Description: as §2
substance,measurement,setting,value
Met-Met-Leu: tripeptide (MML),growth on peptide,PB1X-9B,-
same,growth on peptide (in words),PB1X-9B (pJP9); PB1X-9B transformed with pJP9,showed growth on all peptides except
same,growth on peptide,"PB1X-9B (pJP9); PBIX-9B (pJP9), 80 μM peptide in SC medium, 30° C., 72 hrs",-
same,growth on peptide,"PB1X-9B (pPTF4); PBIX-9B (pPTF4), 80 μM peptide in SC medium, 30° C., 72 hrs",-
same,growth on / utilization of peptide (in words),PB1X-9B (pPTF4); plant peptide transport gene (pPTF4),able to utilize
same,utilization of peptide for growth (in words),PB1X-2A,did not utilize
same,competition for uptake of [3H]-dileucine,ATPTR2Ap,uptake competition similar to that seen for Leu-Leu
same,competition for uptake of [3H]-dileucine,[1],uptake competition similar to that seen for Leu-Leu
